Measurements: ChEMBL document CHEMBL2406948, “Skeletal rearrangement of seven-membered iminosugars: synthesis of (-)-adenophorine, (-)-1-epi-adenophorine and derivatives and evaluation as glycosidase inhibitors” (Bioorg Med Chem, 2013)

What was measured:
[1] = molecular target: T1, Tissue alpha-L-fucosidase (Bos taurus, UniProt Q2KIM0); assay: Inhibition of bovine kidney alpha-L-fucosidase
T1 sequence (Q2KIM0 whole entry): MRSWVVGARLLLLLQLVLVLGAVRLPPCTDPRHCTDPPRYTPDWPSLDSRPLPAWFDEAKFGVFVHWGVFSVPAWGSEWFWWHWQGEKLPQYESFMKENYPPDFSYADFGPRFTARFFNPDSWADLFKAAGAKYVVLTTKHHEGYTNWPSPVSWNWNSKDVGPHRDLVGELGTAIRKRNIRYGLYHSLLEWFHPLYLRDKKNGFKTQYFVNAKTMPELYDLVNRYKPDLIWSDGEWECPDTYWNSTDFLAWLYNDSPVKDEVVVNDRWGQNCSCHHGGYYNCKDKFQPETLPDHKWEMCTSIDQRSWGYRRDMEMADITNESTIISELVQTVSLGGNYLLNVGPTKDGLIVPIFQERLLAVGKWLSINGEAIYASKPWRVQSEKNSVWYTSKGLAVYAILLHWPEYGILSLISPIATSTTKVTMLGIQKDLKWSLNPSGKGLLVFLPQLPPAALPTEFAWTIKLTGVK

[2] = Inhibition of rice alpha-glucosidase; set-up: species or system Oryza sativa
Beta-galactosidase = molecular target: T2, Beta-galactosidase (Bos taurus, UniProt Q58D55); assay: Inhibition of bovine liver beta-galactosidase
T2 sequence (Q58D55 whole entry): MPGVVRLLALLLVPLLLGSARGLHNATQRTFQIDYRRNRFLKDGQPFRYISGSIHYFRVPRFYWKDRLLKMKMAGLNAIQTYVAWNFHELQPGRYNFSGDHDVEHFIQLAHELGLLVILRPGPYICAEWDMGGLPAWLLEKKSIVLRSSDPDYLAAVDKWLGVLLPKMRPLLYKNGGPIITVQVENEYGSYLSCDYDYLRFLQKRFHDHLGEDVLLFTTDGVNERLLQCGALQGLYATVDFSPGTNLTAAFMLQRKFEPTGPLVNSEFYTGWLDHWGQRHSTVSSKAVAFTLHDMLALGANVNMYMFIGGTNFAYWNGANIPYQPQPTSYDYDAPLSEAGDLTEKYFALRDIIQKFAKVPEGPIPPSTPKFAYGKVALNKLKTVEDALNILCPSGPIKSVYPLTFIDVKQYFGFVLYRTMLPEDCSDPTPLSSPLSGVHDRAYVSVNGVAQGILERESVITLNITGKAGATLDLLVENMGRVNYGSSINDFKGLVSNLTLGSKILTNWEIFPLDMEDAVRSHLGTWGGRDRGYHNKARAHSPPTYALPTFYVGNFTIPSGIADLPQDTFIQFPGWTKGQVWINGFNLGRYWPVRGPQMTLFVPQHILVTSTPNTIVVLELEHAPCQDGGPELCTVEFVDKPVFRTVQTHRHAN

Canavalia ensiformis = assay: Inhibition of jack beans alpha-mannosidase at 1000 uM
[3] = molecular target: T3, Uncharacterized protein (Sus scrofa) (UniProt I3LIR5); assay: Inhibition of pig kidney alpha, alpha trehalase at 1000 uM
T3 sequence (whole entry): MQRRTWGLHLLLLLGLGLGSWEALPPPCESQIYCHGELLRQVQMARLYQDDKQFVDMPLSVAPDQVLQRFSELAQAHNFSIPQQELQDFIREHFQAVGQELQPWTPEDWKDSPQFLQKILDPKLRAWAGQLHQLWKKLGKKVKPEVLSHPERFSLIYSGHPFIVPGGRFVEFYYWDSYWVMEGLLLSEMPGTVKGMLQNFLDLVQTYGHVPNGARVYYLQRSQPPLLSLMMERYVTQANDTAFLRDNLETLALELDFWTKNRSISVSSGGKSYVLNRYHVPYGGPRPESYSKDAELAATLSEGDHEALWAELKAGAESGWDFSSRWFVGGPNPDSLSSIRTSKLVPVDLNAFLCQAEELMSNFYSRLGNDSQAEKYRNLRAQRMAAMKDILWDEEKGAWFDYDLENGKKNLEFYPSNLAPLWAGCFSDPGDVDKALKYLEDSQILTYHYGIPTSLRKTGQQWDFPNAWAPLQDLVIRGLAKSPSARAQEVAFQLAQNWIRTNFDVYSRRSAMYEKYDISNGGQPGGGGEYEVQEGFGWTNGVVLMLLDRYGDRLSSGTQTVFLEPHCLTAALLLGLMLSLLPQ

[4] = molecular target: Alpha-galactosidase (Coffea arabica) (UniProt Q42656); assay: Inhibition of coffee bean alpha-galactosidase at 1000 uM
Aspergillus niger [5] = assay: Inhibition of Aspergillus niger amyloglucosidase at 1000 uM
Rattus norvegicus = species: Rattus norvegicus; assay: Inhibition of rat intestinal maltase alpha-glucosidase at 1000 uM
Prunus dulcis = assay: Inhibition of almond beta-glucosidase at 1000 uM
Aspergillus niger [6] = assay: Inhibition of Aspergillus niger beta-glucosidase at 1000 uM
[7] = molecular target: T4, Tissue alpha-L-fucosidase (Bos taurus) (UniProt Q2KIM0); assay: Inhibition of bovine kidney alpha-L-fucosidase at 1000 uM
T4 sequence (whole entry): T1 sequence (Q2KIM0 whole entry)

[8] = molecular target: Oligo-1,6-glucosidase IMA1 (Saccharomyces cerevisiae S288c) (UniProt P53051); assay: Inhibition of yeast alpha-glucosidase at 1000 uM
Helix pomatia = assay: Inhibition of snail beta-mannosidase at 1000 uM
Penicillium decumbens = assay: Inhibition of Penicillium decumbens alpha-L-rhamnosidase at 1000 uM
[9] = molecular target: T5, Glucosylceramidase (Bos taurus) (UniProt Q2KHZ8); assay: Inhibition of bovine liver beta-glucosidase at 1000 uM
T5 sequence (whole entry): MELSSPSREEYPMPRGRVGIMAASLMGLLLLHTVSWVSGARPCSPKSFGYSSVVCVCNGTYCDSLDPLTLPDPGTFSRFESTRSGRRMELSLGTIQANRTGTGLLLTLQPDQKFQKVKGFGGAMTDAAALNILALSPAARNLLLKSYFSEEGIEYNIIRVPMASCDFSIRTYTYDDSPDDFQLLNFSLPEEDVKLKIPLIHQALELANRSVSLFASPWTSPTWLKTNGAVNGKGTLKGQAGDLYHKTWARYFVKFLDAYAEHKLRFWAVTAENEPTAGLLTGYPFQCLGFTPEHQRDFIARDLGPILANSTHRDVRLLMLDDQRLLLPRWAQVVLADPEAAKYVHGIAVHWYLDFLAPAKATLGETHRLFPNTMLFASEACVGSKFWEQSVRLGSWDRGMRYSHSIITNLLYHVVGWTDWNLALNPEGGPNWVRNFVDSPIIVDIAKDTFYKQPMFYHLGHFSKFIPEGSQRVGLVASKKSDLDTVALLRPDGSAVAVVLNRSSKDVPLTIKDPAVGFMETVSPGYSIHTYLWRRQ

Sequence of Oligo-1,6-glucosidase IMA1 (Saccharomyces cerevisiae S288c) (P53051 whole entry): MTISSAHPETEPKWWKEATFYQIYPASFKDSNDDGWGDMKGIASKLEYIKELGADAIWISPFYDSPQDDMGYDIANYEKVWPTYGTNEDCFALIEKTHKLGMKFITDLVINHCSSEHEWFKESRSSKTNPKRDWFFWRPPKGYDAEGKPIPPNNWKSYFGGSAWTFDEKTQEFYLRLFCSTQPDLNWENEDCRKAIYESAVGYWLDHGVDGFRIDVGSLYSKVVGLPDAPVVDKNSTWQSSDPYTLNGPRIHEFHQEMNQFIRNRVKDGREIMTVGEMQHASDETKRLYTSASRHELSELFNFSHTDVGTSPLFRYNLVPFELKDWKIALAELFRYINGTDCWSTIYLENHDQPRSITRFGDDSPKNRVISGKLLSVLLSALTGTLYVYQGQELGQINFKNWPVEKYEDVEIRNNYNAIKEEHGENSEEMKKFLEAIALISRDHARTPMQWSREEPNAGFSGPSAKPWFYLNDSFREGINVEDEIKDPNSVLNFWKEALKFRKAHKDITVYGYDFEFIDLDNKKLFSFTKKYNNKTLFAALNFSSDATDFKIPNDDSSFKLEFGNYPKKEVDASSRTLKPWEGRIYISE
Sequence of Alpha-galactosidase (Coffea arabica) (Q42656 16-378 limits assumed): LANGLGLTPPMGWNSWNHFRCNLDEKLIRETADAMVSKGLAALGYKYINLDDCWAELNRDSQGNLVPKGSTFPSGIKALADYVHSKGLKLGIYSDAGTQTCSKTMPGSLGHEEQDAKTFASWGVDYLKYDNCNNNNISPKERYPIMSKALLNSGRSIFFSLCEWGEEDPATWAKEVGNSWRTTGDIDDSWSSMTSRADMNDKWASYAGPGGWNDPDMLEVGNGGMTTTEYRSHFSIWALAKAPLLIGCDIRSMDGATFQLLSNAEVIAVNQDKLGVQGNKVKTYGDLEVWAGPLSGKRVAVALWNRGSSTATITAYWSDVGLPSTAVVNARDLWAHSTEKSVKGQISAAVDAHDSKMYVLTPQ

Ki [1] [µM] | IC50 [2] [µM] | IC50 (Beta-galactosidase) [µM] | inhibition (Canavalia ensiformis) [%] | inhibition [3] [%] | inhibition [4] [%] | inhibition (Aspergillus niger [5]) [%] | inhibition (Rattus norvegicus) [%] | inhibition (Prunus dulcis) [%] | inhibition (Aspergillus niger [6]) [%] | inhibition [7] [%] | inhibition [8] [%] | inhibition (Helix pomatia) [%] | inhibition (Penicillium decumbens) [%] | inhibition [9] [%] | Compound
4.6 | – | – | – | – | – | – | – | – | – | – | – | – | – | – | O[C@H]1[C@H](O)[C@@H](O)CNC[C@H]1O
– | 839 | 541 | 1.6 | 0 | 46 | 0 | 0 | 0 | 9.1 | 0 | 0 | 3.6 | 14.8 | 6 | CCC[C@@H]1NC[C@@H](O)[C@@H](O)[C@H](O)[C@H]1O
